From patent US20210198277A1, “AMINE-SUBSTITUTED ARYL OR HETEROARYL COMPOUNDS” (Epizyme, Inc., priority 2016, published 2021) come the findings set out here.

A word on the IC50: it is the concentration that inhibits the measured activity by half.

A value given as a limit tells only on which side of the number the result lay.

This assay concerns the target T1, EHMT2 (Homo sapiens, UniProt Q96KQ7).
T1 construct: host or cells: MDA-MB-231
T1 sequence (Q96KQ7 1-1210): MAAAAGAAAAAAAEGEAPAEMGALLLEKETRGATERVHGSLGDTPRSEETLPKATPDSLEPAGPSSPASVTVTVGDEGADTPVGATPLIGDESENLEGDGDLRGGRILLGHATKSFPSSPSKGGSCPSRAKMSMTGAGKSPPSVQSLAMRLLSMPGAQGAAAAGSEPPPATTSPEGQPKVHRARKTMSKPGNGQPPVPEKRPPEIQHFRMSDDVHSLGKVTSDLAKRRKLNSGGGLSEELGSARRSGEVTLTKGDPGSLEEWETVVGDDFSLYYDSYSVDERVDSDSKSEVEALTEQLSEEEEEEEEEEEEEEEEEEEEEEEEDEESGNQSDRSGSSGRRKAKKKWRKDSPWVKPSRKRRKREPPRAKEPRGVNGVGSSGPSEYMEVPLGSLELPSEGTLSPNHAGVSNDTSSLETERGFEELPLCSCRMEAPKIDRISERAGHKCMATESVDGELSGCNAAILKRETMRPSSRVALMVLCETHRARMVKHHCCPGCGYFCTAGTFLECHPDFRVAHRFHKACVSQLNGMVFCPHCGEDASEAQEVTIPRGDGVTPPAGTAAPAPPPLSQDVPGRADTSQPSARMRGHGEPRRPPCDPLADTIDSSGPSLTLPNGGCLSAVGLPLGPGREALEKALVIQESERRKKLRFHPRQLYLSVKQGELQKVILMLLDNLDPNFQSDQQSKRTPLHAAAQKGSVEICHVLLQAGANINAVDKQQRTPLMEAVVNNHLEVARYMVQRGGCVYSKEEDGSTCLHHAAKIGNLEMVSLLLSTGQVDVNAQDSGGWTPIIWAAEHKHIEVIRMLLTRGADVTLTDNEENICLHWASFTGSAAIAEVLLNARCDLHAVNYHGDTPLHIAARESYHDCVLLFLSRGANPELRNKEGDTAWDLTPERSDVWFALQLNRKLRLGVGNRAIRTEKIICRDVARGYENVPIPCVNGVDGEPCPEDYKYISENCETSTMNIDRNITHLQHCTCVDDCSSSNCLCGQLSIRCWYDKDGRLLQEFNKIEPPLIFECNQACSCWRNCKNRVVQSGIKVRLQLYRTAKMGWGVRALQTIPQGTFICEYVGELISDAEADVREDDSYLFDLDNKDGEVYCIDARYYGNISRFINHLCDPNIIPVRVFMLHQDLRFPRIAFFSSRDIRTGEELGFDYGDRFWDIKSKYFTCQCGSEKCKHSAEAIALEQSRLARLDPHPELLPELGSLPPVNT
The assay can be described thus: MDA-MB-231 H3K9me2 in-cell Western assay (EHMT2 ICW). Particulars: Table VI; read-out: EHMT2 ICW IC50. It counts as cell-based. An outline of the steps:
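IC50 values came from a variable-slope four-parameter fit on triplicate wells, using % inhibition from the 800/700 nm infrared signal ratio (anti-H3K9me2 versus DRAQ5 DNA stain). Before fixation and immunostaining, MDA-MB-231 cells, 3,000 per well, were exposed to compound for 48 h at 37 °C.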

For the compound `CNc1cc(C)nc(Nc2ccc(OC)c(C#CC3CCNC3)c2)n1` (centres unmarked) [Compound 845], the IC50 was in the range of 100 to 1000 nM. The result for `CNc1cc(C)nc(Nc2ccc(OC)c(C#CC3CCCN3)c2)n1` (centres unmarked) [Compound 846] reads 100 to 1000 nM; that for `CNc1cc(C)nc(Nc2ccc(OC)c(C#CC3CCN(C)C3)c2)n1` (centres unmarked) [Compound 847], 1000 to 10000 nM; that for `CNc1cc(C)nc(Nc2ccc(OC)c(C#CC3CCCN3C)c2)n1` (centres unmarked) [Compound 848], 100 to 1000 nM. The result for `CNC(=O)c1cc(C)nc(Nc2ccc(OC)c(OCCCN3CCCC3)c2)n1` [Compound 854] reads over 10000 nM; that for `CNc1cc(C)c2cc(OC)c(C#CCN3CCCC3)cc2n1` [Compound 859], 100 to 1000 nM; that for `CNc1cc(C)nc(Nc2ccc(OC)c(C#CCN3CCN(C)CC3)c2)n1` [Compound 860], over 10000 nM. `COc1cc2c(C3CCN([C@@H]4CCOC4)CC3)cc(C)nc2cc1OCCCN1CCCC1` [Compound 863]: the IC50 is 100 to 1000 nM.
